Columns and labels:
[1] = log P by HPLC (OECD Guideline 117), method [b] neutral range; assay type: physicochemical; details: HPLC; for logP[b]: method [b] neutral range; for chromatographic logP: reversed-phase C18 HPLC column, neutral range, pH 7.8
Method: (§1) The log P values were determined analogously to OECD Guideline 117 (EC Directive 92/69/EEC) by HPLC (high-performance liquid chromatography) using reversed-phase columns (C 18), by the following methods:
[b] The LC-MS determination in the neutral range is effected at pH 7.8 with 0.001 molar aqueous ammonium hydrogencarbonate solution and acetonitrile as eluents; linear gradient from 10% acetonitrile to 95% acetonitrile.

[2] = system: Tetranychus urticae; assay: Tetranychus urticae spray test, OP-resistant (TETRUR); assay type: in vivo; details: after 6 days; for pest or weed control at 500 g/ha: Tetranychus urticae, 144 h, read-out: efficacy
Procedure, shortened: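 Bean leaf discs infested with all stages of an OP-resistant Tetranychus urticae strain sprayed with compound in acetone/DMF with alkylaryl polyglycol ether emulsifier, diluted in water. Efficacy in % scored after 6 days; 100% means all mites killed.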

[3] = log P by HPLC (OECD Guideline 117), method [a] acidic range; assay type: physicochemical; details: for logP[a]: HPLC, method [a] acidic range; for chromatographic logP: reversed-phase C18 HPLC column, acidic range
Method: as §1
[a] The LC-MS determination in the acidic range is effected at pH 2.7 with 0.1% aqueous formic acid and acetonitrile (contains 0.1% formic acid) as eluents; linear gradient from 10% acetonitrile to 95% acetonitrile.

[4] = pH 2.7, HPLC method [a], read-out: logP[a]
[5] = pH 2.7, HPLC, pH 2.7, read-out: log P[a]

Compound | logP[b] [1] | logP[a] [3] | efficacy ([2]; application rate of 500 g/ha) | also measured
Cc1cc(C)c([S+]([O-])CC(F)(F)F)cc1-n1nnn(C(C)C)c1=O (racemic) [Example 300] | 2.61 | 2.63 | 100% | –
COC1=CC(=O)N(c2ccc(C)c(SCC(F)(F)F)c2)C1 [Example 316] | 2.95 | 2.98 | 90% | –
CNn1c(C2CC2)nn(-c2cc([S+]([O-])CC(F)(F)F)c(C)cc2F)c1=O (stereo not shown) [Example 208] | 2.05 | 2.09 | 100% | –
Cc1cc(F)c(-n2nc(C(F)(F)F)n(C)c2=O)cc1SCC(F)(F)F [Example 9, 2-{2-Fluoro-4-methyl-5-[(2,2,2-trifluoroethyl)sulphanyl]phenyl}-4-methyl-5-(trifluoromethyl)-2,4-dihydro-3H-1,2,4-triazol-3-one] | – | – | – | chromatographic logP [1]: 3.53; pest or weed control at 500 g/ha ([2]; application rate of 500 g/ha): 100%; chromatographic logP [3, 4]: 3.58; chromatographic logP [3, 5]: 3.58
CCn1c(S(C)(=O)=O)nn(-c2cc([S+]([O-])CC(F)(F)F)c(C)cc2F)c1=O (stereo not shown) [Example 422] | 2.11 | 2.12 | 100% | –
CC[S+]([O-])c1nn(-c2cc(SCC(F)(F)F)c(C)cc2F)c(=O)n1C (stereo not shown) [Example 243, 5-(Ethylsulphinyl)-2-{2-fluoro-4-methyl-5-[(2,2,2-trifluoroethyl)sulphanyl]phenyl}-4-methyl-2,4-dihydro-3H-1,2,4-triazol-3-one] | – | – | – | chromatographic logP [1]: 2.51; pest or weed control at 500 g/ha ([2]; application rate of 500 g/ha): 100%; chromatographic logP [3, 4]: 2.55; chromatographic logP [3, 5]: 2.55
CSc1nn(-c2cc([S+]([O-])CC(F)(F)F)c(C)cc2F)c(=O)n1C (stereo not shown) [Example 260] | 2.03 | 2.07 | 100% | –
CCn1c(Cl)nn(-c2cc([S+]([O-])CC(F)(F)F)c(C)cc2F)c1=O (stereo not shown) [Example 436] | 2.30 | 2.34 | 100% | –
CC(C)(C)COc1nn(-c2cc(SCC(F)(F)F)c(Cl)cc2Cl)c(=O)n1C1CC1 [Example 397] | 5.04 | 5.12 | 100% | –
COC1=CC(=O)N(c2ccc(Cl)c([S+]([O-])CC(F)(F)F)c2)C1 (racemic) [Example 315] | 2.23 | 2.24 | 90% | –
CCOc1nn(-c2ccc(C)c(SCC(F)(F)F)c2)c(=O)n1C1CC1 [Example 122] | 4.04 | 4.19 | 100% | –
Cc1cc(F)c(-n2nc(C(C)C)n(N)c2=O)cc1[S+]([O-])CC(F)(F)F (stereo not shown) [Example 204] | 1.95 | 1.96 | 100% | –
CCc1nn(-c2cc([S+]([O-])CC(F)(F)F)c(C)cc2F)c(=O)n1C1CC1 (racemic) [Example 78] | 2.15 | 2.20 | 100% | –
COc1nn(-c2cc([S+]([O-])CC(F)(F)F)c(F)cc2F)c(=O)n1C (stereo not shown) [Example 169] | 1.77 | 1.81 | 90% | –
CCCCOc1nn(-c2cc([S+]([O-])CC(F)(F)F)c(C)cc2F)c(=O)n1C1CC1 (stereo not shown) [Example 124] | 3.20 | 3.24 | – | efficacy ([2]; application rate of 100 g/ha): 90%
Cc1nn(-c2cc(SCC(F)(F)F)c(C)cc2F)c(=O)o1 [Example 448, 3-{2-Fluoro-4-methyl-5-[(2,2,2-trifluoroethyl)sulphanyl]phenyl}-5-methyl-1,3,4-oxadiazol-2(3H)-one] | – | – | – | chromatographic logP [1]: 3.09; pest or weed control at 500 g/ha ([2]; application rate of 500 g/ha): 100%; chromatographic logP [3, 4]: 3.11; chromatographic logP [3, 5]: 3.11
CCOC1=CC(=O)N(c2cc([S+]([O-])CC(F)(F)F)c(C)cc2F)C1 (stereo not shown) [Example 334] | 2.14 | 2.19 | – | efficacy ([2]; application rate of 20 g/ha): 90%
CC(C)(C)COc1nn(-c2cc([S+]([O-])CC(F)(F)F)c(Cl)cc2Cl)c(=O)n1C1CC1 (stereo not shown) [Example 405] | 4.18 | 4.36 | 90% | –
Cc1cc(F)c(-n2ncn(C(C)(C)C)c2=O)cc1[S+]([O-])CC(F)(F)F (stereo not shown) [Example 369] | 2.16 | 2.21 | 100% | –
CC=Cc1nn(-c2cc([S+]([O-])CC(F)(F)F)c(C)cc2F)c(=O)n1C1CC1 (racemic) [Example 82] | 2.42 | 2.48 | 100% | –
C=CCn1c(C(F)(F)F)nn(-c2cc([S+]([O-])CC(F)(F)F)c(C)cc2F)c1=O (stereo not shown) [Example 364] | 2.96 | 3.00 | 90% | –
CCC(C)Oc1nn(-c2cc([S+]([O-])CC(F)(F)F)c(C)cc2F)c(=O)n1C1CC1 (stereo not shown) [Example 141] | 3.12 | 3.18 | 90% | –
Cc1nn(-c2cc([S+]([O-])CC(F)(F)F)c(C)cc2F)c(=O)o1 (stereo not shown) [Example 451, 3-{2-Fluoro-4-methyl-5-[(2,2,2-trifluoroethyl)sulphinyl]phenyl}-5-methyl-1,3,4-oxadiazol-2(3H)-one] | – | – | – | chromatographic logP [1]: 2.02; pest or weed control at 500 g/ha ([2]; application rate of 500 g/ha): 90%; chromatographic logP [3, 4]: 1.99; chromatographic logP [3, 5]: 1.99

Now from value to compound, other results behind:

logP[b] [1] | logP[a] [3] | Compound | efficacy ([2]; application rate of 500 g/ha) | also measured
2.04 | 2.06 | CNc1nn(-c2cc(SCC(F)(F)F)c(C)cc2F)c(=O)n1N [Example 218] | 90% | –
3.20 | 3.20 | Cc1cc(F)c(-n2nc(-c3ccncc3)oc2=O)cc1SCC(F)(F)F [Example 459] | 90% | –
3.92 | 4.00 | CCCOc1nn(-c2cc(SCC(F)(F)F)c(C)cc2F)c(=O)n1C1CC1 [Example 113] | 90% | –
3.14 | 3.19 | CCOc1nn(-c2cc(SCC(F)(F)F)c(C)cc2F)c(=O)n1C [Example 129] | 90% | –
3.45 | 3.53 | Cc1cc(F)c(-n2nc(SCC(F)(F)F)n(C)c2=O)cc1SCC(F)(F)F [Example 281] | 100% | –
4.14 | 4.24 | Cc1cc(F)c(-n2nc(C3CC3)n(C(C)C)c2=S)cc1SCC(F)(F)F [Example 498] | 100% | –
3.09 | 3.10 | Cc1cc(F)c(-n2nc(C(C)(C)C)oc2=O)cc1[S+]([O-])CC(F)(F)F (racemic) [Example 452] | 100% | –
3.40 | 3.45 | CCn1c(Cl)nn(-c2cc(SCC(F)(F)F)c(C)cc2F)c1=O [Example 434] | 100% | –
3.80 | 3.86 | Cc1cc(F)c(-n2nc(SC(C)C)n(C)c2=O)cc1SCC(F)(F)F [Example 276] | 100% | –
4.32 | 4.38 | CCn1c(C(F)(F)F)nn(-c2ccc(C)c(SCC(F)(F)F)c2)c1=O [Example 54] | 90% | –
3.36 | 3.43 | COc1nn(-c2cc(SCC(F)(F)F)c(Br)cc2F)c(=O)n1C1CC1 [Example 173] | 100% | –
3.64 | 3.71 | Cc1cc(F)c(-n2nc(SC(F)(F)F)n(C)c2=O)cc1SCC(F)(F)F [Example 283] | 100% | –
2.89 | 2.97 | COCCc1nn(-c2cc(SCC(F)(F)F)c(C)cc2F)c(=O)n1C1CC1 [Example 75] | 100% | –
3.39 | 3.46 | Cc1cc(C)c(-n2ncn(C(C)(C)C)c2=O)cc1SCC(F)(F)F [Example 371] | 100% | –
3.77 | 3.82 | CCOCc1nn(-c2cc(SCC(F)(F)F)c(C)cc2F)c(=S)n1C1CC1 [Example 500] | 100% | –
3.96 | 4.03 | C=CCn1c(SCC)nn(-c2cc(SCC(F)(F)F)c(C)cc2F)c1=O [Example 428] | 100% | –
3.66 | 3.63 | Cc1cc(F)c(-n2nc(CCOC(C)C)n(C3CC3)c2=O)cc1SCC(F)(F)F [Example 359] | 100% | –
3.94 | 4.01 | CCC(C)c1nn(-c2cc(SCC(F)(F)F)c(C)cc2F)c(=O)n1C1CC1 (stereo not shown) [Example 85] | 100% | –
2.13 | 2.18 | Cc1cc(F)c(-n2nc(C)n(N)c2=O)cc1SCC(F)(F)F [Example 200] | 100% | –
4.88 | 5.00 | Cc1cc(F)c(-n2nc(C3CCCCC3)n(C3CC3)c2=S)cc1SCC(F)(F)F [Example 496] | 90% | –
3.77 | 3.85 | Cc1cc(F)c(-n2nc(C3CCC3)n(C3CC3)c2=O)cc1SCC(F)(F)F [Example 87] | 100% | –
4.25 | 4.32 | Cc1cc(F)c(-n2nc(OCc3ccccc3)n(C3CC3)c2=O)cc1SCC(F)(F)F [Example 410] | 100% | –

Source: patent publication US9981940B2, “Aryl sulfide derivatives and aryl sulfoxide derivatives as acaricides and insecticides” (BAYER CROPSCIENCE AKTIENGESELLSCHAFT, priority 2013, dated 2018)
